Experimental data taken from patent US10214542B2, “Modified macrocyclic compounds” (BAYER PHARMA AKTIENGESELLSCHAFT, priority 2015, dated 2019).
Marks after values point to notes of the source that are not given here.

How the values were obtained:
[1] = in vivo; cited from earlier work
CDK9/CycT1 = target: T1, CDK9/CycT1 (Homo sapiens, UniProt P50750); assay: CDK9/CycT1 high ATP kinase assay (TR-FRET, Method 1b); assay type: biochemical; details: 2 mM ATP
T1 construct: Recombinant full-length His-tagged human CDK9 and CycT1; His; purchased Invitrogen PV4131; host or cells: insect cells
Procedure: 1b. CDK9/CycT1 High ATP Kinase Assay
CDK9/CycT1-inhibitory activity of compounds of the present invention at a high ATP concentration after preincubation of enzyme and test compounds was quantified employing the CDK9/CycT1 TR-FRET assay as described in the following paragraphs.
Recombinant full-length His-tagged human CDK9 and CycT1, expressed in insect cells and purified by Ni-NTA affinity chromatography, were purchase from Invitrogen (Cat. No PV4131). As substrate for the kinase reaction biotinylated peptide biotin-Ttds-YISPLKSPYKISEG (C-terminus in amid form) was used which can be purchased e.g. from the company JERINI peptide technologies (Berlin, Germany).
For the assay 50 nl of a 100 fold concentrated solution of the test compound in DMSO was pipetted into a black low volume 384 well microtiter plate (Greiner Bio-One, Frickenhausen, Germany), 2 μl of a solution of CDK9/CycT1 in aqueous assay buffer [50 mM Tris/HCl pH 8.0, 10 mM MgCl2, 1.0 mM dithiothreitol, 0.1 mM sodium ortho-vanadate, 0.01% (v/v) Nonidet-P40 (Sigma)] were added and the mixture was incubated for 15 min at 22° C. to allow pre-binding of the test compounds to the enzyme before the start of the kinase reaction. […] The concentration of CDK9/CycT1 was adjusted depending of the activity of the enzyme lot and was chosen appropriate to have the assay in the linear range, typical concentrations were in the range of 0.5 μg/mL. The reaction was stopped by the addition of 5 μl of a solution of TR-FRET detection reagents (0.2 μM streptavidine-XL665 [Cisbio Bioassays, Codolet, France] and 1 nM anti-RB(pSer807/pSer811)-antibody from BD Pharmingen [#558389] and 1.2 nM LANCE EU-W1024 labeled anti-mouse IgG antibody [Perkin-Elmer, product no. AD0077]) in an aqueous EDTA-solution (100 mM EDTA, 0.2% (w/v) bovine serum albumin in 100 mM HEPES pH 7.5).
The resulting mixture was incubated 1 h at 22° C. to allow the formation of complex between the phosphorylated biotinylated peptide and the detection reagents. Subsequently the amount of phosphorylated substrate was evaluated by measurement of the resonance energy transfer from the Eu-chelate to the streptavidine-XL. Therefore, the fluorescence emissions at 620 nm and 665 nm after excitation at 350 nm was measured in a HTRF reader, e.g. a Rubystar (BMG Labtechnologies, Offenburg, Germany) or a Viewlux (Perkin-Elmer). The ratio of the emissions at 665 nm and at […] was taken as the measure for the amount of phosphorylated substrate. The data were normalised (enzyme reaction without inhibitor=0% inhibition, all other assay components but no enzym=100% inhibition).

CDK2/CycE = target: T2, CDK2/CycE (Homo sapiens, UniProt P24941); assay: CDK2/CycE high ATP kinase assay (TR-FRET, Method 2b); assay type: biochemical; details: 2 mM ATP
T2 construct: GST; purchased ProQinase GmbH (Freiburg, Germany); host or cells: insect cells (Sf9)
Procedure: 2b. CDK2/CycE High ATP Kinase Assay:
CDK2/CycE-inhibitory activity of compounds of the present invention at 2 mM adenosine-tri-phosphate (ATP) was quantified employing the CDK2/CycE TR-FRET (TR-FRET=Time Resolved Fluorescence Resonance Energy Transfer) assay as described in the following paragraphs.
Recombinant fusion proteins of GST and human CDK2 and of GST and human CycE, expressed in insect cells (Sf9) and purified by Glutathion-Sepharose affinity chromatography, were purchase from ProQinase GmbH (Freiburg, Germany). As substrate for the kinase reaction biotinylated peptide biotin-Ttds-YISPLKSPYKISEG (C-terminus in amid form) was used which can be purchased e.g. from the company JERINI peptide technologies (Berlin, Germany).
For the assay 50 nl of a 100 fold concentrated solution of the test compound in DMSO was pipetted into a black low volume 384 well microtiter plate (Greiner Bio-One, Frickenhausen, Germany), 2 μl of a solution of CDK2/CycE in aqueous assay buffer [50 mM Tris/HCl pH 8.0, 10 mM MgCl2, 1.0 mM dithiothreitol, 0.1 mM sodium ortho-vanadate, 0.01% (v/v) Nonidet-P40 (Sigma)] were added and the mixture was incubated for 15 min at 22° C. to allow pre-binding of the test compounds to the enzyme before the start of the kinase reaction. Then the kinase reaction was started by the addition of 3 μl of a solution ATP (3.33 mM=>final conc. in the 5 μl assay volume is 2 mM) and substrate (1.25 μM=>final conc. in the 5 μl assay volume is 0.75 μM) in assay buffer and the resulting mixture was incubated for a reaction time of 25 min at 22° C. The concentration of CDK2/CycE was adjusted depending of the activity of the enzyme lot and was chosen appropriate to have the assay in the linear range, typical concentrations were in the range of 15 ng/ml. The reaction was stopped by the addition of 5 μl of a solution of TR-FRET detection reagents (0.2 μM streptavidine-XL665 [Cisbio Bioassays, Codolet, France] and 1 nM anti-RB(pSer807/pSer811)-antibody from BD Pharmingen [#558389] and 1.2 nM LANCE EU-W1024 labeled anti-mouse IgG antibody [Perkin-Elmer, product no. AD0077, as an alternative a Terbium-cryptate-labeled anti-mouse IgG antibody from Cisbio Bioassays can be used]) in an aqueous EDTA-solution (100 mM EDTA, 0.2% (w/v) bovine serum albumin in 100 mM HEPES pH 7.5).
The resulting mixture was incubated 1 h at 22° C. to allow the formation of complex between the phosphorylated biotinylated peptide and the detection reagents. Subsequently the amount of phosphorylated substrate was evaluated by measurement of the resonance energy transfer from the Eu-chelate to the streptavidine-XL. Therefore, the fluorescence emissions at 620 nm and 665 nm after excitation at 350 nm were measured in a TR-FRET reader, e.g. a Rubystar (BMG Labtechnologies, Offenburg, Germany) or a Viewlux (Perkin-Elmer). The ratio of the emissions at 665 nm and at […] was taken as the measure for the amount of phosphorylated substrate. The data were normalised (enzyme reaction without inhibitor=0% inhibition, all other assay components but no enzym=100% inhibition).

[2] = target: T3, human PTEFb (CDK9/Cyclin T1) (Homo sapiens, UniProt P50750); assay: Surface Plasmon Resonance PTEFb (Method 8); assay type: binding; details: 37° C., experimental parameters E
T3 construct: purchased ProQinase, Freiburg, Germany
T3 sequence (P50750 whole entry): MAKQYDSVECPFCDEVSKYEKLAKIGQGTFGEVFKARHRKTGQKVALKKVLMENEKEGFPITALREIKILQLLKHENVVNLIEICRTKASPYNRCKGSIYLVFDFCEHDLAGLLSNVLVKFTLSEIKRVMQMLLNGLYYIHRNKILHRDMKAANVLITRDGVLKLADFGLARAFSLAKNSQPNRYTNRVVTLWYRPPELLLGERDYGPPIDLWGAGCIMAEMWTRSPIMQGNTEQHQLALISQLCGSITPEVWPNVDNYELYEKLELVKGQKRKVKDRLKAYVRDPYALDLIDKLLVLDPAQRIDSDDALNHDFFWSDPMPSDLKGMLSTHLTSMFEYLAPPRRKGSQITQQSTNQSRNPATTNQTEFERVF
T3 sequence (O60563 whole entry partner): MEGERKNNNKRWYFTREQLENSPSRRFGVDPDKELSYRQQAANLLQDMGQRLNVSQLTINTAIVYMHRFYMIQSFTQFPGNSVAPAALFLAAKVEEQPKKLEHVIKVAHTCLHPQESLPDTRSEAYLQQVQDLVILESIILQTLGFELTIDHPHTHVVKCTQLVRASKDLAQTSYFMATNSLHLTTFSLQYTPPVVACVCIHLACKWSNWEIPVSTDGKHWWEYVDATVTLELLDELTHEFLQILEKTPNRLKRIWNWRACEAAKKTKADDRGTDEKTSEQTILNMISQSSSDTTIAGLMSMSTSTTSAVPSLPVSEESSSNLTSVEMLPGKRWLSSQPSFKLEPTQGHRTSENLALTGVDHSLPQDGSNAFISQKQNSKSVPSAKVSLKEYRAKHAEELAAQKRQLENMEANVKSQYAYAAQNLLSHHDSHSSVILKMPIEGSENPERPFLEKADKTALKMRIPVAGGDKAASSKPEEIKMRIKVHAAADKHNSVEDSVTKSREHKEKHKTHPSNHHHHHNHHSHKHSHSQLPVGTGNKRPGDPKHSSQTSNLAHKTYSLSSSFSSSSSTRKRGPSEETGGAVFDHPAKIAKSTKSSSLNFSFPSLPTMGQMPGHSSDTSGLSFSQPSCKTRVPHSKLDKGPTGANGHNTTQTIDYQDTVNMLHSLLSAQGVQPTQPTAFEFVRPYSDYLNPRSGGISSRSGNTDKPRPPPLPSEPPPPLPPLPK

T1 sequence (P50750 whole entry): as the sequence (P50750 whole entry) above
T1 sequence (O60563 whole entry partner): as the sequence (O60563 whole entry partner) above

| SMILES | duration of protection against bronchospasms [1] | IC50 (CDK9/CycT1; Method 1b) | Selectivity high ATP CDK9 over high ATP CDK2: IC50 (high ATP CDK2)/IC50 (high ATP CDK9) (CDK9/CycT1; Methods 1b and 2b) | IC50 (CDK2/CycE) | Target resident time ([2]; 1/koff) | koff ([2]; read-out: Dissociation rate constant koff) |
| --- | --- | --- | --- | --- | --- | --- |
| C[N+]1(C)[C@@H]2C[C@@H](OC(=O)C(O)(c3cccs3)c3cccs3)C[C@H]1[C@@H]1O[C@@H]12 [tiotropium] | more than 6 hours |  |  |  |  |  |
| CS(=N)(=O)Cc1cc2cc(c1)Nc1ncc(F)c(n1)-c1ccc(F)cc1OCCCCN2 (racemic) [Example 25, (rac)-16,20-difluoro-9-[(S-methylsulfonimidoyl)methyl]-3,4,5,6-tetrahydro-2H,12H-13,17-(azeno)-11,7-(metheno)-1,6,12,14-benzoxatriazacyclononadecine] |  | 3.3 nM | 224 | 742 nM | 14.7* min | 0.00113 s⁻¹ |
